US20190327974A1, “SYNERGISTS FOR IMPROVED PESTICIDES” (priority 2017, published 2019)
Substitutions are numbered along the chain they refer to. Where two headings read alike, the source gives them in different places.

How the values were obtained:
Gly137Asp LcαE7 = molecular target: T1, Gly137Asp LcαE7 (Lucilia cuprina, UniProt Q25252, G137D); assay: Enzyme inhibition assay with 4-nitrophenol butyrate, Gly137Asp variant; type: biochemical
T1 sequence (Q25252 1-570 G137D): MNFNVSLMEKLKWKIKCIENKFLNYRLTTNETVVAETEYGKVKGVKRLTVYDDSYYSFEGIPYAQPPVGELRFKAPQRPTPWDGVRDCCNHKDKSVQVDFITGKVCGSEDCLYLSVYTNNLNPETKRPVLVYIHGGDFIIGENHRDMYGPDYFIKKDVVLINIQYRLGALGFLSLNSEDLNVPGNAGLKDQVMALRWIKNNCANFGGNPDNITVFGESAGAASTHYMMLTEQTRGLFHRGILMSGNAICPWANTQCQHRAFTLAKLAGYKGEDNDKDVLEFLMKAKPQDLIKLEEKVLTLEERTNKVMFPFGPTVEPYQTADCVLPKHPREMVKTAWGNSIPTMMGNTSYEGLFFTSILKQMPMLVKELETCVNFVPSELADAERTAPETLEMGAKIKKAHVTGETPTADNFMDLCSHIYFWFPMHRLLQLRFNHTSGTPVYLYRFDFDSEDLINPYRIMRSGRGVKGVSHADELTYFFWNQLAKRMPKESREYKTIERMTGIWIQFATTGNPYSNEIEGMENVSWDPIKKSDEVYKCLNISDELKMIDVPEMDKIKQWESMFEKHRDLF
Method: (§1) Inhibition of wild-type αE7 and the Gly137Asp αE7 variant was determined by a competition assay between the native-substrate analogue 4-nitrophenol butyrate (Sigma) and the boronic acid compounds. Initially, the Michalis constant (KM) with 4-nitrophenol butyrate was measured for both enzymes to determine an appropriate concentration of substrate for use in the competition assays. Formation of the 4-nitrophenolate product of hydrolysis was monitored at 405 nm in the presence of enzyme and eight different concentrations of substrate. 4-nitrophenol butyrate was prepared in methanol to 100 mM and serially diluted 1-in-2 to achieve concentrations from 100 mM to 0.8 mM. Enzyme stocks were prepared in 4 mg/ml bovine serum albumin (Sigma) to maintain enzyme stability. Reactions were prepared by pipetting 178 μl assay buffer (100 mM NaCl, 20 mM HEPES pH 7.5) and 2 μl substrate (final concentrations of 1000 to 8 μM) into 300 μl wells of a 96-well plate. The reaction was initiated by the addition of 20 μl enzyme (final concentration 2.5 nM for wildtype αE7 and 4 nM for Gly137Asp αE7). Product formation was monitored for four minutes at room temperature using an Epoch microplate spectrophotometer (BioTek) and the initial rates of ester hydrolysis were determined by linear regression using GraphPad Prism. The Michalis constant was determined by fitting the initial rates to the Michalis-Menton equation (FIG. 10).
(§2) Enzyme inhibition with the boronic acid compounds was determined by assaying the initial rate of 4-nitrophenol butyrate hydrolysis in the presence of either neat DMSO or the boronic acid compounds in DMSO. Compounds were prepared by serially diluting 1-in-3 an initial 10 mM stock to achieve concentrations from 10 mM to 2 nM. Reactions were prepared by pipetting 178 μl assay buffer supplemented with substrate to a final concentration equal to the KM of the enzyme (15 μM for wildtype αE7 and 250 μM for Gly137Asp αE7) into wells of a 96-well plate. 2 μl neat DMSO or 2 μl serially diluted inhibitor (final concentrations of 100 μM to 20 pM) were added to the wells. The reaction was initiated by the addition of 20 μl enzyme (final concentration 0.5 nM for wildtype αE7 and 10 nM for Glyl37Asp αE7). Product formation was monitored for four minutes at room temperature and the initial rates of ester hydrolysis were determined by linear regression. To determine the concentration of boronic acid compounds required to inhibit 50% of esterase activity (IC50), a four-parameter sigmoidal dose-response curve was fitted to percentage inhibition using GraphPad Prism (FIGS. 7 and 8). Ki values were determined using the Cheng-Prusoff equation assuming competitive inhibition (Yung-Chi, C. & Prusoff W. H. Relationship between the inhibition constant (KI) and the concentration of inhibitor which causes 50 percent inhibition (150) of an enzymatic reaction. Biochem. Pharmacol. 22, 3099-3108 (1973)).
The two most common CBE-mediated insecticide resistance mechanisms involve increased protein expression, or mutation to gain new catalytic (OP-hydrolase) functions. Compounds 1 to 5 were tested against the resistance associated Gly137Asp variant of LcαE7^17,27 (Table 1). The Glyl37Asp mutation is located in the oxyanion hole and positions a new general base in the active site to catalyze dephosphorylation of the catalytic serine. Thus, compounds that inhibit WT LcαE7 as well as this common resistance associated Glyl37Asp variant would increase the efficacy of OPs by targeting both detoxification routes. Encouraged by the activity of the boronic acids 1 to 5, the compounds were tested against the Gly137Asp variant of LcαE7 (Table 1).

wildtype LcαE7 = molecular target: T2, wildtype LcαE7 (Lucilia cuprina, UniProt Q25252); assay: Enzyme inhibition assay with 4-nitrophenol butyrate, wild-type; type: biochemical
T2 sequence (Q25252 1-570): T1 sequence (Q25252 1-570 G137D) with D137G
Method: Wild-type LcαE7 was heterologously expressed in Escherichia coli and purified using metal ion affinity and size exclusion chromatography. The potency of the boronic acids was determined by enzymatic assays of recombinant LcαE7 with the model carboxylester substrate 4-nitrophenol butyrate.
as §1, §2

SMILES | Ki (Gly137Asp LcαE7) [µM] | Ki (wildtype LcαE7) [µM] | Ki (Gly137Asp LcαE7; Cheng-Prusoff from dose-response, 4-nitrophenol butyrate, read-out: Ki Gly137Asp LcαE7) [µM] | Ki (wildtype LcαE7; Cheng-Prusoff from dose-response, 4-nitrophenol butyrate, read-out: Ki wildtype LcαE7) [µM]
Cc1ccc(B(O)O)cc1Br [Compound 1] | 0.049 | 0.012 | – | –
Cc1ccc(B(O)O)cc1OCc1ccccc1 [Compound 2] | 0.029 | 0.0029 | – | –
OB(O)c1cc(Br)cc(N2CCOCC2)c1 [Compound 3.1] | – | – | 0.43 | 0.0007
OB(O)c1cc(Br)cc(N2CCCCC2)c1 [Compound 3.3] | 0.15 | 0.00047 | – | –
CN1CCN(c2cc(Br)cc(B(O)O)c2)CC1 [Compound 3.4] | 1 | 0.0038 | – | –
OB(O)c1cc(Br)cc2c1OCC2 [Compound 3.5] | 0.44 | 0.0034 | – | –
OB(O)c1cc(Br)c2ccccc2c1F [Compound 3.6] | 0.071 | 0.006 | – | –
CC(C)Oc1cc(Br)cc(B(O)O)c1 [Compound 3.7, 3-Bromo-5-isopropoxyphenylboronic acid] | 0.076 | 0.0003 | – | –
OB(O)c1cc(Br)cc(OC(F)(F)F)c1 [Compound 3.8] | 0.11 | 0.002 | – | –
OB(O)c1cc(Br)cc(OCc2ccccc2)c1 [Compound 3.9] | 0.025 | 0.00044 | – | –
OB(O)c1cc(Br)cc(Oc2ccccc2)c1 [Compound 3.10, 3-Bromo-5-phenoxyfenylboronic acid] | 0.018 | 0.00044 | – | –
O=C(c1cc(Cl)cc(B(O)O)c1)N1CCOCC1 [Compound 3.11] | 1 | 0.0058 | – | –
CC(C)(C)Oc1ccc(B(O)O)cc1Br [Compound 3.12] | 0.99 | 0.012 | – | –
OB(O)c1cc(Br)cc(N2CCCC2)c1 [Compound 3] | 0.11 | 0.00025 | – | –
OB(O)c1ccc2ccccc2c1 [Compound 4] | 0.19 | 0.0072 | – | –
OB(O)c1ccc(OCc2ccccc2F)c(Cl)c1 [Compound 5, 3-Chloro-4(2′-fluorobenzyloxy) phenylboronic acid] | 0.17 | 0.011 | – | –
OB(O)c1ccccc1 [PBA, phenylboronic acid, reference compound] | 0.45 | 0.21 | – | –
